Source: patent EP2640377B1, “FGFR1 EXTRACELLULAR DOMAIN COMBINATION THERAPIES” (Five Prime Therapeutics, Inc., priority 2010, dated 2012)
Read-outs that look alike come from different tables or passages of the source.

Legend:
[1] = tested on: A549 cells; assay: A549 non-small cell lung cancer (NSCLC) xenograft model: tumor volume and body weight; conditions: for Fractional tumor volume (FTV), agent alone: day 32
[2] = tested on: Human non-small cell lung cancer (NSCLC) cell line H1703; assay: H1703 non-small cell lung cancer (NSCLC) xenograft model: tumor volume and body weight; assay type: in vivo, SCID mice; conditions: day 38
Description: Human non-small cell lung cancer (NSCLC) cell line H1703 was used as the tumor model and was purchased from ATCC (Manassas, VA; Cat. No. CRL-5889).
Docetaxel was purchased from Toronto Research Chemicals (North York, Ontario, Canada; cat. No. D494420) and formulated in H2O containing 5% Tween 80 and 5% glucose. Docetaxel was administered i.p. at 25 mg/kg (equivalent to about 75 mg/m^2 in a human) once every three weeks for two doses. In combination groups, FGFR1-ECD.339-Fc and docetaxel were either given concurrently or sequentially with FGFR1-ECD.339-Fc given one day before docetaxel or vice versa. Human albumin was purchased from Grifols USA (Los Angeles, CA; Cat. No. NDC 61953-0002-1), formulated in PBS at 3 mg/mL and was used as negative control at 300 µg/100 µL/mouse (15 mg/kg). Table 2: Dosing Schedule
The tumor volume was measured by external caliper to determine the greatest longitudinal diameter (length) and the greatest transverse diameter (width). The tumor volume was then calculated using the following formula: Tumorvolume(mm^3) = (length × width^2)/2 [formula]
Table 3. Tumor volume analysis on day 38
Table 4. Analysis of fractional tumor volumea on day 38

[3] = tested on: Squamous cell lung cancer cell line NCI-H520; conditions: for Fractional tumor volume (FTV), agent alone / Tumor growth inhibition (%) / Mean Tumor volume mm^3(±SD): day 49; for Tumor growth inhibition (%): alone or with FGFR1-ECD.339-Fc 15 mg/kg; for Mean Tumor volume mm^3(±SD): alone or with FGFR1-ECD.339-Fc 15 mg/kg i.p. 2x/wk
Description: Six to eight week old female SCID mice were purchased from Charles River Laboratories (Wilmington, MA) and were acclimated for 1 week before the start of the study. […] The cells were cultured for three to four passages in RPMI+10% FBS + 1% L-glutamine at 37°C in a humidified atmosphere with 5% CO2. When the cultured cells reached 85-90% confluence, cells were harvested and resuspended in cold Ca^2+ and Mg^2+ free PBS containing 50% Matrigel at 3.5 x10^7 cells/ml. The cells were implanted subcutaneously over the right flank of the mice at 3.5x10^6 cells/100µl/mouse. One day after tumor implantation, mice were randomized according to body weight at 10 mice per group. Dosing for all groups began one day post tumor implantation.
FGFR1-ECD.339-Fc was formulated in PBS at 3 mg/ml and administered intraperitoneally (i.p.) at 15 mg/kg (300 µg/100 µl/mouse) twice a week for six weeks. […] In combination groups, FGFR1-ECD.339-Fc and pemetrexed were administered on the same schedule as when given as single agents, and were administered concurrently on days 1, 4, 8, and 11.
The tumor volume and body weight of the mice were monitored twice a week throughout study.
The mice were euthanized by isoflurane inhalation and cervical dislocation.
The tumor volume of each group of mice on day 49 was analyzed by one-way ANOVA followed by Tukey's test.

[4] = FGFR1-ECD.339-Fc 15 mg/kg i.p. twice a week, docetaxel 25 mg/kg i.p. once every three weeks for two doses
[5] = pemetrexed 62.5 mg/kg i.p. QD x 5 x 2 cycles
[6] = pemetrexed 125 mg/kg i.p. QD x 5 x 2 cycles
[7] = pemetrexed 250 mg/kg i.p. (only first five doses given)

CC(=O)O[C@@]12CO[C@@H]1C[C@H](O)[C@@]1(C)C(=O)[C@H](O)C3=C(C)[C@@H](OC(=O)[C@H](O)[C@@H](NC(=O)OC(C)(C)C)c4ccccc4)C[C@@](O)([C@@H](OC(=O)c4ccccc4)[C@H]21)C3(C)C [Docetaxel, 1,7β,10β-trihydroxy-9-oxo-5β,20-epoxytax-11-ene-2α,4,13α-triyl 4-acetate 2-benzoate 13-{(2R,3S)-3-[(tert-butoxycarbonyl)amino]-2-hydroxy-3-phenylpropanoate}]
Fractional tumor volume (FTV), agent alone ([1]; docetaxel 3 mg/kg i.p. twice per week alone): 0.79 | Fractional tumor volume (FTV), agent alone ([1]; docetaxel 10 mg/kg i.p. twice per week alone): 0.58 | Mean Tumor volume mm^3(±SD) [2, 4]: 209 (±303) mm^3 | Tumor growth inhibition (%) [2, 4]: 74% | Fractional tumor volume (FTV), agent alone ([2]; FGFR1-ECD.339-Fc 15 mg/kg, docetaxel 25 mg/kg, FTV = mean TV treated / mean TV control): 0.25

Nc1nc2[nH]cc(CCc3ccc(C(=O)N[C@@H](CCC(=O)O)C(=O)O)cc3)c2c(=O)[nH]1 [Pemetrexed, (S)-2-[4-[2-(4-amino-2-oxo-3,5,7-triazabicyclo[4.3.0]nona-3,8,10-trien-9-yl)ethyl]benzoyl] aminopentanedioic acid]
Fractional tumor volume (FTV), agent alone ([3]; pemetrexed 62.5 mg/kg alone): 0.59 | Tumor growth inhibition (%) [3, 5]: 40% | Mean Tumor volume mm^3(±SD) [3, 5]: 544.7 (±341.5) mm^3 | Fractional tumor volume (FTV), agent alone ([3]; pemetrexed 125 mg/kg alone): 0.75 | Tumor growth inhibition (%) [3, 6]: 24% | Mean Tumor volume mm^3(±SD) [3, 6]: 689.5 (±328.7) mm^3 | Fractional tumor volume (FTV), agent alone ([3]; pemetrexed 250 mg/kg alone): 1.00 | Tumor growth inhibition (%) [3, 7]: 1% | Mean Tumor volume mm^3(±SD) [3, 7]: 926.6 (±339.9) mm^3 | tumor inhibition over the course of the study ([3]; highest dose of pemetrexed (250 mg/kg), alone or with FGFR1-ECD.339-Fc): did not appear to inhibit tumor growth

CC[C@]1(O)C[C@H]2CN(CCc3c([nH]c4ccccc34)[C@@](C(=O)OC)(c3cc4c(cc3OC)N(C=O)[C@H]3[C@@](O)(C(=O)OC)[C@H](OC(C)=O)[C@]5(CC)C=CCN6CC[C@]43[C@@H]65)C2)C1 [Vincristine, methyl (1R,9R,10S,11R,12R,19R)-11-(acetyloxy)-12-ethyl-4-[(13S,15S,17S)-17-ethyl-17-hydroxy-13-(methoxycarbonyl)-1,11-diazatetracyclo[13.3.1.0^4,12.0^5,10]nonadeca-4(12),5,7,9-tetraen-13-yl]-8-formyl-10-hydroxy-5-methoxy-8,16-diazapentacyclo[10.6.1.0^1,9.0^2,7.0^16,19]nonadeca-2,4,6,13-tetraene-10-carboxylate]
weight loss ([1]; higher dose of vincristine (1.5 mg/kg), Figure 9C): lost weight | weight loss ([1]; lower dose of vincristine (1 mg/kg), data not shown): did not lose weight
